# Source: PMC9780942, “Antimicrobial Activity and Immunomodulatory Properties of Acidocin A, the Pediocin-like Bacteriocin with the Non-Canonical Structure” (Membranes, 2022)
# Positions of bridges follow the written chain, without caps; N, C: chain ends. Residues, ends and D or L forms follow the SMILES beside them. No end group written: not given here.
# Assays:
# L. monocytogenes EGD = assay type: cell-based, Listeria monocytogenes; settings: 24 h
# Method: (§1) Antibacterial activity of recombinant bacteriocins against a number of Gram-positive and Gram-negative bacteria (Table S2) was determined by the method of two-fold serial dilutions in a liquid medium. Two-fold serial dilutions of bacteriocins were prepared in sterile 96-well flat-bottom polystyrene microplates (Eppendorf, Hamburg, Germany) (Cat. No. 0030730.011) in a volume of 50 µL of sterile 0.1% bovine serum albumin (BSA) (SERVA Electrophoresis GmbH, Heidelberg, Germany) to prevent non-specific sorption of peptides to the surface of the plate wells [23]. Mid-log phase bacterial cultures were diluted with the 2x Mueller-Hinton broth (MHB) (Sigma-Aldrich, St. Louis, MO, USA) to a final cell concentration of 10^6 colony forming units (CFU) per mL. To determine the activity of bacteriocins against Listeria and Enterococci, 3% tryptic soy broth (TSB) (Merck-Millipore, Burlington, MA, USA) was used instead of MHB. Aliquots of 50 μL of diluted bacterial suspensions were added to each well of the plate, which was then incubated at 37 °C and 950 rpm for 24 h using thermostatable plate shaker PST-60HL-4 (Biosan, Riga, Latvia). As a negative control, 50 µL of the sterile growth medium (2xMHB or 6% TSB) was added to the wells containing 50 µL of 0.1% BSA. The values of the minimum inhibitory concentrations (MIC) were determined as the minimum concentration of the peptide, at which there was no visible growth of bacterial culture. Incubation for 2 h with 20 µg/mL chromogenic substrate resazurin (Sigma-Aldrich, St. Louis, MO, USA) was used to detect viable bacterial cells if they were difficult to visually detect. To study the effect of inorganic salts on the antimicrobial activity of bacteriocins, antibacterial activity assay was carried out in MHB medium supplemented with 0.9% NaCl.
# L. lactis MK43 = experiment: Antibacterial activity assay (MIC), two-fold serial dilutions in liquid medium; assay type: cell-based; settings: for Minimum Inhibitory Concentration: MHB, 0.1% BSA, 37 °C, 24 h, no visible growth; for Minimum inhibitory concentration in the presence of NaCl: MHB supplemented with 0.9% NaCl
# Method: as §1
# L. lactis MK66 = assay type: cell-based; settings: MK66, 24 h
# Method: as §1
# M. luteus Ac-2229 = assay type: cell-based; settings: Ac-2229, 24 h
# Method: as §1
# [1] = test system: P. aeruginosa MDR CI 1995; assay type: cell-based; settings: MDR CI 1995, 24 h
# Method: as §1
# S. aureus 209P = assay type: cell-based; settings: 24 h
# Method: as §1
# M. phlei Ac-1221 = assay type: cell-based; settings: 24 h
# Method: as §1
# E. coli ML-35p = assay type: cell-based; settings: 24 h
# Method: as §1
# B. licheniformis B-511 = assay type: cell-based; settings: 24 h
# Method: as §1
# E. coli ATCC 25922 = assay type: cell-based; settings: ATCC 25922, 24 h
# Method: as §1
# E. coli XDR CI 1057 = assay type: cell-based; settings: XDR CI 1057, 24 h
# Method: as §1
# A. baumannii XDR CI 2675 = assay type: cell-based; settings: XDR CI 2675, 24 h
# Method: as §1
# B. subtilis B-886 = assay type: cell-based; settings: B-886, 24 h
# Method: as §1
# E. coli SQ110 = assay type: cell-based; settings: SQ110, 24 h
# Method: as §1
Compound,Minimum Inhibitory Concentration (L. monocytogenes EGD),Minimum Inhibitory Concentration (L. lactis MK43),Minimum Inhibitory Concentration (L. lactis MK66),Minimum Inhibitory Concentration (M. luteus Ac-2229),Minimum Inhibitory Concentration [1],Minimum Inhibitory Concentration (S. aureus 209P),Minimum Inhibitory Concentration (M. phlei Ac-1221),Minimum Inhibitory Concentration (E. coli ML-35p),Minimum Inhibitory Concentration (B. licheniformis B-511),Minimum Inhibitory Concentration (E. coli ATCC 25922),Minimum Inhibitory Concentration (E. coli XDR CI 1057),Minimum Inhibitory Concentration (A. baumannii XDR CI 2675),Minimum Inhibitory Concentration (B. subtilis B-886),Minimum Inhibitory Concentration (E. coli SQ110),Minimum inhibitory concentration in the presence of NaCl (L. lactis MK43),Minimum inhibitory concentration in the presence of NaCl (L. lactis MK66),Minimum inhibitory concentration in the presence of NaCl (E. coli ML-35p),Minimum inhibitory concentration in the presence of NaCl (B. licheniformis B-511),Minimum inhibitory concentration in the presence of NaCl (B. subtilis B-886),Minimum inhibitory concentration in the presence of NaCl (E. coli SQ110)
CC[C@H](C)[C@H](NC(=O)[C@H](Cc1ccc(O)cc1)NC(=O)[C@@H](NC(=O)[C@@H](NC(=O)[C@H](CC(N)=O)NC(=O)[C@H](CCC(N)=O)NC(=O)[C@H](CC(=O)O)NC(=O)[C@H](Cc1ccc(O)cc1)NC(=O)[C@H](CCCCN)NC(=O)[C@@H](NC(=O)[C@H](CC(N)=O)NC(=O)[C@H](CCCCN)NC(=O)[C@H](CC(C)C)NC(=O)[C@H](CCCNC(=N)N)NC(=O)[C@@H](NC(=O)[C@H](CCCCN)NC(=O)CNC(=O)[C@H](Cc1c[nH]c2ccccc12)NC(=O)[C@H](CC(C)C)NC(=O)[C@H](CO)NC(=O)[C@H](CC(N)=O)NC(=O)[C@H](CCCCN)NC(=O)[C@@H](NC(=O)[C@H](CS)NC(=O)[C@H](Cc1c[nH]cn1)NC(=O)[C@@H](NC(=O)CNC(=O)[C@H](CC(N)=O)NC(=O)[C@@H](NC(=O)CNC(=O)[C@H](Cc1ccc(O)cc1)NC(=O)[C@H](Cc1ccc(O)cc1)NC(=O)[C@@H](NC(=O)[C@@H](N)CCCCN)[C@@H](C)O)[C@@H](C)O)C(C)C)[C@@H](C)O)C(C)C)C(C)C)[C@@H](C)O)[C@@H](C)O)C(=O)NCC(=O)N[C@@H](CCCNC(=N)N)C(=O)N[C@@H](CC(C)C)C(=O)N[C@@H](CCC(N)=O)C(=O)N[C@@H](CC(=O)O)C(=O)N[C@H](C(=O)N[C@@H](CC(C)C)C(=O)N[C@@H](CC(C)C)C(=O)NCC(=O)N[C@@H](Cc1c[nH]c2ccccc12)C(=O)N[C@@H](C)C(=O)N[C@H](C(=O)NCC(=O)N[C@@H](C)C(=O)N[C@@H](Cc1ccccc1)C(=O)NCC(=O)N[C@@H](CCCCN)C(=O)N[C@H](C(=O)N[C@@H](Cc1ccccc1)C(=O)N[C@@H](Cc1c[nH]cn1)C(=O)O)[C@@H](C)O)[C@@H](C)O)[C@@H](C)CC [OR-7(VI) (DTT reduced)] (H-KTYYGTNGVHCTKNSLWGKVRLKNVKYDQNTTYIGRLQDILLGWATGAFGKTFH-OH; N-terminus and C-terminus assumed),>32 µM,>32 µM,4 µM,>32 µM,>32 µM,>32 µM,32 µM,>32 µM,8 µM,>32 µM,>32 µM,>32 µM,16 µM,>32 µM,–,–,–,–,–,–
HCTKKSLWGKVRLKNVIPGTLCRKQSLPIKQDLKILLGWATGAFGKTFH (disulfide 2-22) [AcdA(d9)],>32 µM,8 µM,2 µM,16 µM,16 µM,16 µM,4 µM,4 µM,8 µM,16 µM,8 µM,4 µM,8 µM,8 µM,> 32 µM,> 32 µM,16 µM,> 32 µM,> 32 µM,32 µM
KTYVGNTGYHCTKKSLWGKVRLKNVIPGTLCRKQSLPIKQDLKILLGWATGAFGKTFH (disulfide 11-31) [AcdA(x4)],>32 µM,4 µM,2 µM,8 µM,16 µM,16 µM,4 µM,8 µM,4 µM,16 µM,8 µM,4 µM,8 µM,8 µM,> 32 µM,> 32 µM,16 µM,> 32 µM,> 32 µM,32 µM
KTYYGNGVHCTKKSLWGKVRLKNVIPGTLCRKQSLPIKQDLKILLGWATGAFGKTFH (cysteines drawn unpaired) [AcdA(dT) (DTT reduced)],>32 µM,2 µM,1 µM,16 µM,>32 µM,16 µM,4 µM,4 µM,4 µM,8 µM,16 µM,8 µM,4 µM,4 µM,–,–,–,–,–,–
KTYYGNGVHCTKKSLWGKVRLKNVIPGTLCRKQSLPIKQDLKILLGWATGAFGKTFH (disulfide 10-30) [AcdA(dT)],>128 µM,1 µM,0.5 µM,8 µM,16 µM,8 µM,2 µM,2 µM,2 µM,4 µM,8 µM,4 µM,2 µM,1 µM,> 32 µM,32 µM,16 µM,> 32 µM,> 32 µM,8 µM
"KTYYGNGVHSTKKSLWGKVRLKNVIPGTLSRKQSLPIKQDLKILLGWATGAFGKTFH [AcdA(dT,C11S,C31S)]",>32 µM,4 µM,1 µM,32 µM,>32 µM,>32 µM,8 µM,>64 µM,4 µM,>64 µM,>64 µM,>32 µM,4 µM,16 µM,> 32 µM,> 32 µM,–,> 32 µM,> 32 µM,> 32 µM
KTYYGTNAVHCTKKSLWGKVRLKNVIPGTLCRKQSLPIKQDLKILLGWATGAFGKTFH (disulfide 11-31) [AcdA(G8A)],>32 µM,4 µM,2 µM,16 µM,16 µM,8 µM,2 µM,8 µM,8 µM,16 µM,8 µM,8 µM,8 µM,4 µM,> 32 µM,> 32 µM,16 µM,> 32 µM,> 32 µM,32 µM
